Results from patent US20060281807A1, “Quassinoid compositions for the treatment of cancer and other proliferative diseases” (Tapestry Pharmaceuticals, Inc., priority 2005, published 2006).
Converted amounts (≈) assume the structure as drawn. “And” between values parts separate entries of the source, which are not always exact repeats. Equal entries are not always repeated. Where two headings read alike, the source gives them in different places.

Tests used:
[1] = test system: HCT116 (human colorectal carcinoma); experiment: Disk diffusion assay, zone of inhibition, HCT116; assay type: cell-based; details: 1 mg/mL
human CFU-GM = assay type: cell-based; details: 1 mg/mL
Method: A disk diffusion assay was performed to define the differential cell killing ability of 15-O-(3′-hydroxy-3′-isopropyl-4′-methylpentanoyl)bruceolide. Seven cell types were assayed: L1210 (ATCC CCL-219) (murine leukemia), CCRF-CEM (ATCC CCL-119) (human leukemia), Colon 38 (murine colon adenocarcinoma), HCT116 (ATCC CCL-247) (human colorectal carcinoma), H125 (human lung carcinoma). The murine and human granulocyte/macrophage progenitor cell line (CFU-GM), served as controls.
For CFU-GM cells, the femoral marrow of BD2F1 mice was flushed with MEM alpha (2 mL per femur). The cells were passed through an 18 gauge needle twice and the monodispersed suspension was counted. A total of 1.5×10^6 cells were plated in 3 mL of 0.3% agar with the addition of 10% L cell conditioned media, which provided colony stimulating factor, in MEM-alpha plus 10% BCS. For human CFU-GM, the cells were obtained from Poietic Technologies, Inc. (Gaithersburg, Md.) and washed twice with PBS before being titered and added to the agar mixture. The same cell number, culture conditions, and conditioning factors used with respect to the murine CFU-GM cells were used with the human cells, except that the cultures were assessed after 10 days of incubation.
A 15 μl sample of each compound was dropped onto a 6.5 mm disk (Baxter filter disks). The disks were allowed to dry overnight and then placed close to the edge of a petri dish. Depending upon the cell type, the dishes were incubated for 7 to 10 days, and examined by an inverted stereo-microscope (10×) for measurement of the zone of inhibition. The zone of inhibition was measured from the edge of the filter disk to the beginning of normal-sized colony formation. The diameter of the filter disk, 6.5 mm, was arbitrarily taken as a zone of 200 units. Compounds that were selective for killing solid tumors, as compared to leukemia or normal cells (“solid tumor selective”) were defined as those compounds which produced a difference in zones between solid tumor cells and either normal or leukemia cells of at least 250 units. The results of this analysis are set forth in Table 4, which illustrates the relative diameters of the zones of inhibition by various drugs on the growth of the respective cell types at various drug dilutions.

L1210 (murine leukemia) = experiment: Disk diffusion assay, zone of inhibition, L1210; assay type: cell-based; details: 1 mg/mL
[2] = Pharmacokinetics, plasma and tumor concentration by HPLC in HCT-116 tumor-bearing SCID mice; assay type: in vivo; details: for concentration in plasma / concentration in tumor: 2.25 mg/mouse intravenously
Method: Samples from HCT-116 tumor-bearing SCID mice were analyzed via high performance liquid chromatography (HPLC) following administration of inventive compositions. […] At different time points following administration of the inventive compounds (up to 24 hours), individual mice were killed and both blood and tumor samples were removed for HPLC analysis.
In particular, a Waters 2690 Separation Module (Waters Corp., Milford, Mass.) connected to a Waters 2487 Dual wavelength absorbance detector controlled by Millennium32 v3.20 was used for separation, detection, data acquisition, integration and quantitation. An external standard calibration method was used to quantify the inventive compounds in each sample. A Symmetry Shield RP18 5 μm ([…]) analytical column (Waters Corp., Milford, Mass.) was used in the separation of each inventive compound. The column temperature was maintained at 30° C. 25 μl of each sample was injected per analytical run.
The mobile phase consisted of 99% water/1% acetonitrile as the initial gradient composition for the inventive composition. A gradient analysis from deionized water to acetonitrile at a flow rate of 1 mL/min for each tested compound is set forth in Tables 9 and 10. The detection wavelength for the inventive composition was 278 nm, and the retention time was 7.8 minutes.
For the in vivo pharmacokinetic trial, 15 mice were inoculated bilaterally and subcutaneously in the inguinal area with 10^7 tumor cells (by a 16-gauge needle), such as HCT-116 cells or trocar-implanted Colon 38 cells. Each of the compounds 15-O-(3′-hydroxy-3′-isopropyl-4′-methylpentanoyl)bruceolide and 15-(3-isopropyl-4-methyl-2-pentenoyl)-bruceolide was administered intravenously at the MTD in 0.25 mL via the tail vein. Each compound was administered to 10 animals when the tumors reached a measurable size (i.e., 80 to 300 mm^3) at a dose determined from the MTD study. The remaining five animals served as time-point controls. At prescribed times thereafter, one animal per time point was sacrificed, and blood and bilateral tumors were harvested for analysis of drug concentrations. Specifically, mice were sacrificed for pharmacological analysis at 1, 5, 15, 30, 60, 120, 240, 360 minutes and 12 and 24 hours following administration of the inventive compounds.

HCT-116 cells = experiment: HCT-116 cytotoxicity, viable cell count by trypan blue; assay type: cell-based, human; details: for IC90/IC50: HCT-116; for IC50 / IC90: Homo sapiens
[3] = test system: CCRF-CEM (human leukemia); experiment: Disk diffusion assay, zone of inhibition, CCRF-CEM; assay type: cell-based; details: 1 mg/mL
[4] = no dilution, 15 μl on disk, 6.5 mm = 200 units

| Structure (SMILES) | zone of inhibition, H-116 ([1]; dilution 1/10) | zone of inhibition, H-116 ([1]; dilution 1/1000) | zone of inhibition, H-116 [1, 4] | zone of inhibition, human CFU-GM (human CFU-GM; dilution 1/10) | zone of inhibition, human CFU-GM (human CFU-GM; dilution 1/100) | zone of inhibition, L1210 (L1210 (murine leukemia); dilution 1/10) | zone of inhibition, L1210 (L1210 (murine leukemia); dilution 1/100) | zone of inhibition, L1210 (L1210 (murine leukemia); [4]) | IC90/IC50 (HCT-116 cells) | zone of inhibition, CEM ([3]; dilution 1/10) | zone of inhibition, CEM ([3]; dilution 1/100) | further results |
| --- | --- | --- | --- | --- | --- | --- | --- | --- | --- | --- | --- | --- |
| COC(=O)[C@@]12OC[C@@]34C1[C@@H](OC(=O)CC(O)(C(C)C)C(C)C)C(=O)O[C@@H]3C[C@H]1C(C)=C(O)C(=O)C[C@]1(C)[C@H]4[C@@H](O)[C@@H]2O (some centres unmarked) [15-O-(3′-hydroxy-3′-isopropyl-4′-methylpentanoyl)bruceolide] | 1000 units and 900 units | 0 units | >1000 units | 900 units | 600 units | 550 units | 200 units | 1000 units | 35 | 650 units and 700 units | 100 units and 150 units | zone of inhibition, L1210 (L1210 (murine leukemia); dilution 1/400): 0 units; survival of mouse designated for analysis ([2]; 24 hours post administration, 2.25 mg/mouse intravenously (above the MTD)): did not survive; concentration in plasma ([2]; one hour post administration): approximately 7 μg/mL; concentration in tumor ([2]; one hour post administration): approximately 7 μg/mL; concentration in plasma ([2]; six hours post administration): 100 ng/mL; concentration in tumor ([2]; six hours post administration): 800 ng/mL; concentration in plasma ([2]; two hours post administration): 1500 ng/mL; concentration in tumor ([2]; two hours post administration): approximately 4 μg/mL; IC50 (HCT-116 cells; 72 h, HCT-116, 3 days with compound, viable cells, by interpolation, read-out: IC50): 1.9 ng/mL (≈ 0.0032 µM); IC90 (HCT-116 cells; 72 h, HCT-116, 3 days with compound, viable cells, by interpolation, read-out: IC90): 0.067 µg/mL (≈ 0.113 µM) |
| COC(=O)[C@@]12OC[C@@]34C1[C@@H](OC(=O)C=C(C(C)C)C(C)C)C(=O)O[C@@H]3C[C@H]1C(C)=C(O)C(=O)C[C@]1(C)[C@H]4[C@@H](O)[C@@H]2O (some centres unmarked) [15-O-(3′-isopropyl-4′-methyl-2′-pentenoyl)-bruceolide] | 750 units | 0 units | >1000 units | >1000 units | 550 units | 1000 units | 650 units and 600 units | >1000 units | 7 | 800 units | 400 units | zone of inhibition, H-116 ([1]; dilution 1/100): 100 units; zone of inhibition, L1210 (L1210 (murine leukemia); dilution 1/1000): 150 units; concentration at 0.5 h ([2]; SCID, in vivo, 0.5 hour time point, intravenous (FIG. 8: 0.075 mg/mouse)): 100 ng/mL; concentration at 1 h ([2]; SCID, in vivo, 1 hour time point, intravenous (FIG. 8: 0.075 mg/mouse), below sensitivity of the assay): < 50 ng/mL; level in the tumor, FIG. 8 ([2]; all time points, 0.075 mg/mouse intravenously, detection limit 0.05 μg/mL): below the detection limit; concentration in tumor samples ([2]; entire 24 hour sampling period, intravenous (FIG. 8: 0.075 mg/mouse)): below the sensitivity level of the assay; concentration in vivo (plasma), FIG. 8 ([2]; time points 1 to 24 hours, 0.075 mg/mouse intravenously, below detection limit): < 0.05 µg/mL; IC50 (HCT-116 cells; HCT-116, 72 h): 1.5 ng/mL (≈ 0.0026 µM); IC90 (HCT-116 cells; HCT-116, 72 h): 0.01 µg/mL (≈ 0.0173 µM) |
